{"source": "patent US9228998B2", "about": "“Drug monitoring methods using the promyelocytic leukemia protein as a redox sensor” (Institut National de la Sante et de la Recherche Medicale …, priority 2010, dated 2016)", "key": {"PML NBs": {"biological_target": "T1, PML NBs (Homo sapiens, UniProt P29590)", "T1 construct": "endogenous in cells", "T1 sequence (P29590 1-882)": "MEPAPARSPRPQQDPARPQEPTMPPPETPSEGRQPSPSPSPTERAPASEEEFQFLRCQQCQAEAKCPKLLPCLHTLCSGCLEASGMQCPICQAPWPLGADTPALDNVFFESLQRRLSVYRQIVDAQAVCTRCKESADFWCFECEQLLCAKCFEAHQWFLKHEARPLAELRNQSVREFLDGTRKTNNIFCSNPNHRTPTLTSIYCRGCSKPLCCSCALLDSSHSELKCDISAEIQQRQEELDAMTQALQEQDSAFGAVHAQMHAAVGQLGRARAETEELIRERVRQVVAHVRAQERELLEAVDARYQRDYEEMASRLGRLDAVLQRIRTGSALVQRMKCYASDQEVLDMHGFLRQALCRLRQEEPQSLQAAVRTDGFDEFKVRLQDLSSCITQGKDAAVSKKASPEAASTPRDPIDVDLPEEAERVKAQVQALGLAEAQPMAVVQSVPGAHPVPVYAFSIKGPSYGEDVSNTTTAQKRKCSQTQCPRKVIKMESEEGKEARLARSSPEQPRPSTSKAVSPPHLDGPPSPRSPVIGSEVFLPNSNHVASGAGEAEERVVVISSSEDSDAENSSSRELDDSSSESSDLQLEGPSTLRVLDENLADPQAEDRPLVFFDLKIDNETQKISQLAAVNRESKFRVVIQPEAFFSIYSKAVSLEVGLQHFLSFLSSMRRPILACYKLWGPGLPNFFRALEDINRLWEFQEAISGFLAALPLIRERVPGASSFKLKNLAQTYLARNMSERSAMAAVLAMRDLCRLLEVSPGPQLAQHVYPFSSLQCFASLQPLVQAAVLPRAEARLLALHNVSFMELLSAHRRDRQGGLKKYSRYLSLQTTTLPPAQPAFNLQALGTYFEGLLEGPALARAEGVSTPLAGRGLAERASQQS", "assay": "PML NB labelling in in situ nuclear matrix preparations (immunofluorescence)", "assay_type": "cell-based", "conditions": "nuclear matrix prepared in situ, exposure to DTT", "protocol": "(§1) Immunofluorescence, electronic microscopy and antibodies were previously described^15. In situ nuclear matrix preparations were prepared as described^1. Confocal analyses were performed on a LSM510 Meta laser microscope (Carl Zeiss MicroImaging, Inc.) with a plan apochromat 63X N.A.1.4 oil immersion objective and increased resolution images were obtained with deconvolution software (Autodeblur, Image Quant) using blind iterative algorithms.\n(§2) Intermolecular disulfide bonds were previously implicated in stabilization of the nuclear matrix. […] We then compared total and nuclear matrix extracts from transiently transfected CHO cells under non-reducing conditions and observed that the matrix fraction was dramatically enriched in covalent PML dimers.\nThe matrix-associated PML fraction is hypersumoylated. Conversely, deletion of the coiled-coil of PML abrogates its association to the nuclear matrix, NB formation, and sumoylation. Thus, whereas As2O3 induces PML targeting to the matrix and NB formation independently of sumoylation, matrix association contributes to basal or As2O3-enhanced PML sumoylation. We therefore questioned how As2O3 could promote transfer from soluble diffuse nuclear PML to insoluble, matrix-associated NBs. As2O3 controls protein phosphorylation and ROS production. […]"}, "lamin B": {"system": "lamin B", "assay": "lamin B staining in in situ nuclear matrix preparations", "assay_type": "cell-based", "conditions": "nuclear matrix prepared in situ, exposure to DTT", "protocol": "as §1\nThe mouse anti-GFP antibody was from Roche Applied Science; Goat polyclonal anti-Lamin B (M20), rabbit polyclonal anti-RXRa (D20) and anti-Daxx (M-112) were from Santa Cruz Biotechnology. Rabbit polyclonal anti-Daxx from G. Grosveld was used for Western blot analysis. Anti SUMO-1 (mouse monoclonal anti GMP-1 antibody) and Rabbit polyclonal anti-SUMO-2/3 antibodies were from Zymed Laboratories. Rabbit polyclonal anti-RARA115 was a kind gift of Pierre Chambon. […] Fluorescence was quantified with ImageJ software.\nas §2\nThe matrix-associated PML fraction is hypersumoylated. […]"}}, "note": "“Also recorded” adds a separate entry of the source."}
{"smiles": "O[C@@H](CS)[C@@H](O)CS", "note": "[DTT]", "values": [{"measurement": "PML NB labelling in in situ nuclear matrix", "setting": "PML NBs", "result": "PML NB labelling was lost; also recorded: disrupted endogenous PML NBs"}, {"measurement": "lamin B staining", "setting": "lamin B", "result": "unaffected; also recorded: without affecting lamin-B staining"}]}
